Laboratory results: publication PMC8920385, “Design, synthesis and biological evaluation of a series of dianilinopyrimidines as EGFR inhibitors” (Journal of Enzyme Inhibition and Medicinal Chemistry, 2022)

Assays:
[1] = test system: L02 cells; assay: Cytotoxicity evaluation (MTT assay), L02 normal cells; conditions: Homo sapiens, L02, read-out: IC50 L02
Protocol: Three tumour cells with high expression of EGFR^wt were used to test the antitumor activity of the compounds including, A549 (Human non-small-cell lung cancer cell line) cells, PC-3 (Human prostate cancer cell line) cells, and HepG2 (Human hepatocellular carcinomas cell line) cells. They were all purchased from the Shanghai Cell Bank of the Chinese Academy of Sciences. L02 (normal human liver cell line) cells were also used to evaluate the cytotoxicity. […] The IC50 values were calculated from the dose − response curve under Graph-Pad Prism.

[2] = test system: A549 cells; assay: Cell cycle analysis, PI flow cytometry; conditions: 48 h
Protocol: The experimental data of apoptosis and cell cycle for A549 cells were evaluated in BD Accuri C6 flow cytometry (American BD Corporation Shanghai Co., Ltd.), provided by the School of Pharmaceutical Sciences, Guizhou University.
(B) Profiles obtained by FACS. The percentages for different phases of the cell cycle were illustrated in the histogram.

[3] = test system: A549 cells; assay: Cell apoptosis analysis, Annexin V-FITC/PI flow cytometry; assay type: cell-based, Human; conditions: A549, 10 μM, 48 h
Excerpt: Apoptosis of A549 cells is an efficient route to clear out the extra cancer cells in the tissue homeostasis.

[4] = test system: PC-3 cells; assay: Cytotoxicity evaluation (MTT assay), PC-3; assay type: cell-based; conditions: Homo sapiens, mean ± SD of three replicates
[5] = test system: A549 cells; assay: Cytotoxicity evaluation (MTT assay), A549; assay type: cell-based; conditions: Homo sapiens, mean ± SD of three replicates
[6] = test system: HepG2 cells; assay: Cytotoxicity evaluation (MTT assay), HepG2; assay type: cell-based; conditions: Homo sapiens, mean ± SD of three replicates
[7] = biological target: T1, wild type EGFR tyrosine kinase (EGFR^wt) (Homo sapiens, UniProt P00533); assay: In vitro EGFR^wt-TK assay (ELISA); assay type: biochemical; conditions: mean ± SD of three replicates; for inhibition at 1 µM: read-out: EGFR^wt-TK inhibition rate
T1 construct: purchased PTM Bio; Co., Ltd
T1 sequence (P00533 25-1210): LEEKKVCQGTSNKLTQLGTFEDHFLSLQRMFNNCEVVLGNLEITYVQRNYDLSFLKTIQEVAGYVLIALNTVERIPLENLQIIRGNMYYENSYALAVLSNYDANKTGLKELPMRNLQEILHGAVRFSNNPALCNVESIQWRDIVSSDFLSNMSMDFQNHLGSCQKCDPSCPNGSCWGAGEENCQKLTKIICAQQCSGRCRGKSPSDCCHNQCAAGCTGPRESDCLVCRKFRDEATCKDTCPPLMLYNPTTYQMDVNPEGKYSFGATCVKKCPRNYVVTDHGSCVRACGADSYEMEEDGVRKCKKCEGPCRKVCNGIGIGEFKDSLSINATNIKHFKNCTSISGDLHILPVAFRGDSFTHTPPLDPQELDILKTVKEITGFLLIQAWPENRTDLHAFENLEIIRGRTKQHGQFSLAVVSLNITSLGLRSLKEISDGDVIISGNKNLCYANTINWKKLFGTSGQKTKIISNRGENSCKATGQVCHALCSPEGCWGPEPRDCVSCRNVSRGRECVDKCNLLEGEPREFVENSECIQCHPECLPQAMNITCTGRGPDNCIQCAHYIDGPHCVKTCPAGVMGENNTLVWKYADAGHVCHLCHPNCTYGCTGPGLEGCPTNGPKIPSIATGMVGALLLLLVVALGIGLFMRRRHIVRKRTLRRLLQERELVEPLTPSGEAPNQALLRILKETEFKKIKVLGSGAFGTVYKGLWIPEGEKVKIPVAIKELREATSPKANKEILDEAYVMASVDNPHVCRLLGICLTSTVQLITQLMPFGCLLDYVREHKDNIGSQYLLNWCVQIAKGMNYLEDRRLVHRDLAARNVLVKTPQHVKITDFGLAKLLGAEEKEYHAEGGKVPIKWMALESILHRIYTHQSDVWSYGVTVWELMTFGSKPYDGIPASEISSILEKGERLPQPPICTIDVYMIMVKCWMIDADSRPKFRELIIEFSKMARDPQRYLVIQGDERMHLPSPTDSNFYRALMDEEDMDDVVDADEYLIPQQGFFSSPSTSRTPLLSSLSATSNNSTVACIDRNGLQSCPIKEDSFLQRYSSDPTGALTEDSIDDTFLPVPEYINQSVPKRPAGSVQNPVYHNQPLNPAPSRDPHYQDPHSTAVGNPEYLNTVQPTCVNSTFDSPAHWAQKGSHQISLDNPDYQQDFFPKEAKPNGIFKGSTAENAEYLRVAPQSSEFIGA

SMILES | IC50 [1] [µM] | melting point [°C] | Percentage of cells in G2/M phase ([2]; A549, 1 μM) [%] | Percentage of cells in G2/M phase ([2]; A549, 10 μM) [%] | early apoptotic cells (Q2-4) [3] [%] | late apoptotic cells (Q2-2) [3] [%] | IC50 [4] [µM] | IC50 [5] [µM] | IC50 [6] [µM] | EGFR^wt-TK inhibition rate ([7]; 1 μM) [%] | inhibition at 1 µM ([7]; 1 μM) [%] | IC50 [7] [µM]
CNC(=O)c1ccsc1Nc1nc(Nc2ccc(NC(=O)c3cccc(F)c3)cc2)ncc1C(F)(F)F [4c, 2-{2-[4–(3-Fluoro-benzoylamino)-phenylamino]-5-trifluoromethyl-pyrimidin-4-ylamino}-thiophene-3-carboxylic acid methylamide] | > 40 | 217.1 to 219 | 51.09 | 59.32 | 10.70 | 57.84 | 2.46 ± 0.42 | 0.56 ± 0.12 | 2.21 ± 0.5 | 61.69 ± 2.08 | > 50 | 0.32 ± 0.047
CNC(=O)c1ccsc1Nc1nc(Nc2ccc(Nc3c(NCCNC(=O)C=Cc4ccccc4)c(=O)c3=O)cc2)ncc1C(F)(F)F [8e, 2-[2-(4-{3,4-Dioxo-2-[2-(3-phenyl-acryloylamino)-ethylamino]-cyclobut-1-enylamino}-phenylamino)-5-trifluoromethyl-pyrimidin-4-ylamino]-thiophene-3-carboxylic acid methylamide] | > 40 | > 250 | – | – | – | – | 4.12 ± 0.65 | 3.15 ± 0.44 | 4.31 ± 0.39 | – | 53.1 ± 1.75 | 0.64 ± 0.1
CNC(=O)c1ccsc1Nc1nc(Nc2ccc(Nc3c(NCCNC(=O)C=Cc4cccc(F)c4)c(=O)c3=O)cc2)ncc1C(F)(F)F [8f, 2-{2-[4–(2-{2-[3-(3-Fluoro-phenyl)-acryloylamino]-ethylamino}-3,4-dioxo-cyclobut-1-enylamino)-phenylamino]-5-trifluoromethyl-pyrimidin-4-ylamino}-thiophene-3-carboxylic acid methylamide] | > 40 | > 250 | – | – | – | – | 3.48 ± 0.22 | 2.17 ± 0.54 | 3.09 ± 0.66 | – | 58.9 ± 1.92 | 0.57 ± 0.29
CNC(=O)c1ccsc1Nc1nc(Nc2ccc(Nc3c(NCCNC(=O)C=Cc4ccc(F)cc4)c(=O)c3=O)cc2)ncc1C(F)(F)F [8g, 2-{2-[4–(2-{2-[3–(4-Fluoro-phenyl)-acryloylamino]-ethylamino}-3,4-dioxo-cyclobut-1-enylamino)-phenylamino]-5-trifluoromethyl-pyrimidin-4-ylamino}-thiophene-3-carboxylic acid methylamide] | > 40 | > 250 | – | – | – | – | 6.08 ± 0.94 | 3.14 ± 0.92 | 5.33 ± 0.58 | – | 52.1 ± 1.93 | 0.59 ± 0.15
COc1cc2ncnc(Nc3ccc(F)c(Cl)c3)c2cc1OCCCN1CCOCC1 [Gefitinib, reference compound] | – | – | – | 21.71 | 7.77 | 10.62 | – | – | – | – | – | –
